Where a name gives a salt, the structure may show the parent alone.
Experiments:
[1] = biological target: PDE 4 (phosphodiesterase IV); experiment: PDE 4 inhibiting effect (3H-cAMP hydrolysis, PDE 4 active fraction from Balb/c mouse liver); type: biochemical; conditions: PDE 4 fraction from Balb/c mice liver, 0.064 μM cAMP, 2 hours at 25° C.; read-out: PDE4 IC50
Description: Methods for Evaluating the PDE 4 Inhibiting Effect
The PDE 4 (phosphodiesterase IV) inhibiting effect of the compounds of the present invention was performed by the following method, which was modified assay method described in Biochemical. […] That is, the livers obtained from three Balb/c mice (male, 12 weeks: obtainable from CLEA Japan, Inc.) were suspended with 30 mL of buffer solution B [20 mM of bis-tris, 5 mM of 2-mercaptoethanol, 2 mM of benzamidine, 2 mM of EDTA, 0.1 mM of 4-(2-aminoethyl)benzenesulfonyl hydrochloride, 50 mM of sodium acetate; pH 6.5], then homogenized by Polytron® homogenizer. The homogenate were centrifuged under 25,000×G for 10 minutes at 4° C. The supernatant was separated and thus obtained supernatant was further centrifuged under 100,000×G for 60 minutes at 4° C., and then filtrated with 0.2 μm filter to obtain the soluble fraction. • (2) The obtained soluble fraction was filled in equilibrium DEAE sepharose column (1×10 cm) with buffer solution B, and phosphodiesterase fractions were eluted by 120 mL of buffer solution B with linear gradient from 0.05 to 1M sodium acetate concentration. 5 mL each of 24 eluents were collected, and each eluents were examined for cyclic AMP metabolic activities of phosphodiesterase. […] After the reaction, suspension of Sephadex®-QAE in 10 mM of HEPES-Na (pH 7.0) was added to the reaction mixture, and the mixture was left at rest for 5 minutes.

[2] = biological target: PDE 7 (phosphodiesterase VII) (Homo sapiens (Human), UniProt Q13946); experiment: PDE 7 inhibiting effect (3H-cAMP hydrolysis, PDE 7 active fraction from MOLT-4 cells); type: biochemical; conditions: PDE 7 fraction from MOLT-4 cells, 0.064 μM cAMP, 10 μM rolipram, 2 hours at 25° C.; read-out: PDE7 IC50
Description: Methods for Evaluating the PDE 7 Inhibiting Effect
The PDE 7 (phosphodiesterase VII) inhibiting effect of the compounds of the present invention was performed by the following method, which was modified assay method described in Biochemical. Pharmacol. 48(6), 1219-1223 (1994). • (1) The active fraction of PDE 7 (phosphodiesterase VII) was obtained. That is, MOLT-4 (obtainable from ATCC as ATCC No. CRL-1582), which was cell line of human acute lymphoblastic lymphoma T cells, was incubated in RPMI1640 culture medium containing 10% fetal bovine serum to obtain 5×10^8 MOLT-4 cells. The cells were collected by centrifugation and suspended with 10 mL of buffer solution A [25 mM of tris-HCl, 5 mM of 2-mercaptoethanol, 2 mM of benzamidine, 2 mM of EDTA, 0.1 mM of 4-(2-aminoethyl)benzenesulfonyl hydrochloride; pH 7.5], then homogenized by Polytron® homogenizer. The homogenate were centrifuged under 25,000×G for 10 minutes at 4° C. The supernatant was separated and thus obtained supernatant was further centrifuged under 100,000×G for 60 minutes at 4° C., and then filtrated with 0.2 μm filter to obtain the soluble fraction. • (2) The obtained soluble fraction was filled in equilibrium HiTrap Q column (5 mL×2) with buffer solution A, and phosphodiesterase fractions were eluted by 300 mL of buffer solution A with linear gradient from 0 to 0.8 M NaCl concentration. 5 mL each of 60 eluents were collected, and each eluents were examined for cyclic AMP metabolic activities of phosphodiesterase. […] After the reaction, suspension of Sephadex®-QAE in 10 mM of HEPES-Na (pH 7.0) was added to the reaction mixture, and the mixture was left at rest for 5 minutes.

Sequence of PDE 7 (phosphodiesterase VII) (Q13946 whole entry): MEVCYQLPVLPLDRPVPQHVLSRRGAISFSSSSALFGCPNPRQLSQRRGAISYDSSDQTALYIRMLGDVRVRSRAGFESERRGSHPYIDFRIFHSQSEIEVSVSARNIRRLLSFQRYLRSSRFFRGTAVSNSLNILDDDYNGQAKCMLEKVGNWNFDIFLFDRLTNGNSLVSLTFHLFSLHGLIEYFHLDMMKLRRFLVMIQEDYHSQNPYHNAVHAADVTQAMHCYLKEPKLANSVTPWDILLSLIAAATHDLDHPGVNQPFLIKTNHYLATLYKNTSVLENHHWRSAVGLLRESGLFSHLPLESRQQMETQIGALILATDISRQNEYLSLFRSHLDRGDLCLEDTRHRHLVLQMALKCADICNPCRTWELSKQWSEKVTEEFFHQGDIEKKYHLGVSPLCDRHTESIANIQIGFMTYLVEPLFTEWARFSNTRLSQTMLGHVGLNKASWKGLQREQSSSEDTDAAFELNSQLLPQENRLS

Work on `CC(=O)c1ccc(NC(=O)c2cc3c(C)nn(C4CCCCC4)c3s2)cc1` [Example 38, N-(4-Acetylphenyl)-1-cyclohexyl-3-methyl-1H-thieno[2,3-c]pyrazole-5-carboxamide] yielded an IC50 [1] of 5000 nM and an IC50 [2] of 33 nM.

`Cc1nn(C2CCCCC2)c2sc(C(=O)Nc3ccc(C(=O)N(C)C)cc3)cc12` [Example 39, 1-Cyclohexyl-N-{4-[(dimethylamino)carbonyl]phenyl}-3-methyl-1H-thieno[2,3-c]pyrazole-5-carboxamide] showed an IC50 [1] of 3500 nM and an IC50 [2] of 14 nM.

Work on `CCOC(=O)c1ccc(NC(=O)c2cc3c(C)nn(C4CCCCC4)c3s2)cc1` [Example 40, Ethyl 4-{[(1-cyclohexyl-3-methyl-1H-thieno[2,3-c]pyrazol-5-yl)-carbonyl]amino}benzoate] yielded an IC50 [1] of 15000 nM and an IC50 [2] of 75 nM.

`Cc1nn(C2CCCCC2)c2sc(C(=O)Nc3ccc(C(=O)O)cc3)cc12` [Example 41, 4-{[(1-Cyclohexyl-methyl-1H-thieno[2,3-c]pyrazol-5-yl)carbonyl]-amino}benzoic acid] showed an IC50 [1] of 12000 nM and an IC50 [2] of 50 nM.

`Cc1nn(C2CCCCC2)c2sc(C(=O)Nc3ccc(C(=O)NC(C)C)cc3)cc12` [Example 45, 1-Cyclohexyl-N-{4-[(isopropylamino)carbonyl]phenyl}-3-methyl-1H-thieno[2,3-c]pyrazole-5-carboxamide] was tested, and the IC50 [1] was 12000 nM and the IC50 [2] was 50 nM.

Compound `Cc1nn(C2CCCCC2)c2sc(C(=O)Nc3ccc(C(=O)NCCO)cc3)cc12` [Example 46, 1-Cyclohexyl-N-(4-{[(2-hydroxyethyl)amino]carbonyl}phenyl)-3-methyl-1H-thieno[2,3-c]pyrazole-5-carboxamide] has an IC50 [1] of 2000 nM and an IC50 [2] of 30 nM.

`CC(=O)Nc1ccc(NC(=O)c2cc3c(C)nn(C4CCCCC4)c3s2)cn1` [Example 47, N-[6-(Acetylamino)-3-pyridinyl]-1-cyclohexyl-3-methyl-1H-thieno[2,3-c]pyrazole-5-carboxamide] gave an IC50 [1] of 3500 nM and an IC50 [2] of 32 nM.

`Cc1nn(C2CCCCC2)c2sc(C(=O)Nc3ccc(C(=O)NC(C)(C)C)cc3)cc12` [Example 51, N-{4-[(tert-Butylamino)carbonyl]phenyl}-1-cyclohexyl-3-methyl-1H-thieno[2,3-c]pyrazole-5-carboxamide] showed an IC50 [1] of 9500 nM and an IC50 [2] of 75 nM.

For `Cc1nn(C2CCCCC2)c2sc(C(=O)Nc3ccc(NC=O)cc3)cc12` [Example 53, 1-Cyclohexyl-N-[4-(formylamino)phenyl]-3-methyl-1H-thieno[2,3-c]pyrazole-5-carboxamide], the IC50 [1] was 3500 nM and the IC50 [2] was 55 nM.

In the case of `Cc1nn(C2CCCCC2)c2sc(C(=O)Nc3ccc4c(c3)CCN4C(=O)C3CC3)cc12` [Example 58, 1-Cyclohexyl-N-[1-(cyclopropylcarbonyl)-2,3-dihydro-1H-indol-5-yl]-3-methyl-1H-thieno[2,3-c]pyrazole-5-carboxamide], the IC50 [1] is reported as 3600 nM and the IC50 [2] is reported as 36 nM.

In the case of `Cc1nn(C2CCCCC2)c2sc(C(=O)Nc3ccc4c(c3)CCN4S(C)(=O)=O)cc12` [Example 59, 1-Cyclohexyl-3-methyl-N-[1-(methylsulfonyl)-2,3-dihydro-1H-indol-5-yl]-1H-thieno[2,3-c]pyrazole-5-carboxamide], the IC50 [1] is reported as 7000 nM and the IC50 [2] is reported as 80 nM.

Work on `CC(=O)n1ccc2cc(NC(=O)c3cc4c(C)nn(C5CCCCC5)c4s3)ccc21` [Example 60, N-(1-Acetyl-1H-indol-5-yl)-1-cyclohexyl-3-methyl-1H-thieno[2,3-c]pyrazole-5-carboxamide] yielded an IC50 [1] of 6500 nM and an IC50 [2] of 65 nM.

Compound `CNC(=O)COc1ccc(NC(=O)c2cc3c(C)nn(C4CCCCC4)c3s2)cc1` [Example 67] has an IC50 [1] of 3500 nM and an IC50 [2] of 23 nM.

Work on `CNC(=O)Cc1ccc(NC(=O)c2cc3c(C)nn(C4CCCCC4)c3s2)cc1` [Example 70] yielded an IC50 [1] of 4700 nM and an IC50 [2] of 25 nM.

For `Cc1nn(C2CCCCC2)c2sc(C(=O)Nc3ccc(N4CCNCC4)cc3)cc12` [Example 72, 1-Cyclohexyl-3-methyl-N-[4-(1-piperazinyl)phenyl]-1H-thieno[2,3-c]pyrazole-5-carboxamide HCl salt], the IC50 [1] was 1200 nM and the IC50 [2] was 10 nM.

With `CC(=O)N1CCN(c2ccc(NC(=O)c3cc4c(C)nn(C5CCCCC5)c4s3)cc2)CC1` [Example 73, N-[4-(4-Acetyl-1-piperazinyl)phenyl]-1-cyclohexyl-3-methyl-1H-thieno[2,3-c]pyrazole-5-carboxamide] the IC50 [1] was 1000 nM and the IC50 [2] was 12 nM.

`Cc1nn(C2CCCCC2)c2sc(C(=O)N[C@H]3CC[C@H](O)CC3)cc12` [Example 74, 1-Cyclohexyl-N-(trans-hydroxycyclohexyl)-3-methyl-1H-thieno[2,3-c]pyrazole-5-carboxamide] was tested, and the IC50 [1] was 7000 nM and the IC50 [2] was 50 nM.

`Cc1nn(C2CCCCC2)c2sc(C(=O)Nc3ccc(OCC(=O)N4CCN(C)CC4)cc3)cc12` [Example 76, 1-Cyclohexyl-3-methyl-N-{4-[2-(4-methyl-1-piperazinyl)-2-oxoethexy]-phenyl}-1H-thieno[2,3-c]pyrazole-5-carboxamide] showed an IC50 [1] of 2000 nM and an IC50 [2] of 20 nM.

`Cc1nn(C2CCCCC2)c2sc(C(=O)Nc3ccc(OCC(=O)N(C)C)cc3)cc12` [Example 77, 1-Cyclohexyl-N-{4-[2-(dimethylamino)-2-oxoethoxy]phenyl}-3-methyl-1H-thieno[2,3-c]pyrazole-5-carboxamide] was tested, and the IC50 [1] was 2000 nM and the IC50 [2] was 20 nM.

`CC(=O)N[C@H]1CC[C@H](NC(=O)c2cc3c(C)nn(C4CCCCC4)c3s2)CC1` [Example 80, N-[trans-4-(Acetylamino)cyclohexyl]-1-cyclohexyl-3-methyl-1H-thieno[2,3-c]pyrazole-5-carboxamide] was tested, and the IC50 [1] was 2500 nM and the IC50 [2] was 60 nM.

`CC(=O)Nc1ccc(NC(=O)c2cc3c(C)nn(C4CCCCCC4)c3s2)cc1` [Example 94, N-[4-(Acetylamino)phenyl]-1-cycloheptyl-3-methyl-1H-thieno[2,3-c]pyrazole-5-carboxamide] showed an IC50 [1] greater than 30000 nM and an IC50 [2] of 58 nM.

With `Cc1nn(C2CCCCC2)c2sc(C(=O)Nc3ccc(N)cc3)cc12` [Example 99, N-(4-Aminophenyl)-1-cyclohexyl-3-methyl-1H-thieno[2,3-c]pyrazole-5-carboxamide] the IC50 [1] was 5000 nM and the IC50 [2] was 99 nM.

For `CC(=O)Nc1ccc(NC(=O)c2cc3c(C)nn(C4CCCCC4)c3s2)cc1` [Example 100, N-[4-(Acetylamino)phenyl]-1-cyclohexyl-3-methyl-1H-thieno[2,3-c]pyrazole-5-carboxamide], the IC50 [1] was greater than 30000 nM and the IC50 [2] was 37 nM.

With `COCC(=O)Nc1ccc(NC(=O)c2cc3c(C)nn(C4CCCCC4)c3s2)cc1` [Example 101, 1-Cyclohexyl-N-{4-[(methoxyacetyl)amino]phenyl}-3-methyl-1H-thieno[2,3-c]pyrazole-5-carboxamide] the IC50 [1] was 1300 nM and the IC50 [2] was 30 nM.

`COC(=O)c1ccc(NC(=O)c2cc3c(C)nn(C4CCCCC4)c3s2)cn1` [Example 102, Methyl 5-{[(1-Cyclohexyl-3-methyl-1H-thieno[2,3-c]pyrazol-5-yl)-carbonyl]amino}-2-pyridinecarboxylate] gave an IC50 [1] of 5500 nM and an IC50 [2] of 85 nM.

`CNC(=O)c1ccc(NC(=O)c2cc3c(C)nn(C4CCCCC4)c3s2)cn1` [Example 104, 1-Cyclohexyl-3-methyl-N-{6-[(methylamino)carbonyl]-3-pyridinyl}-1H-thieno[2,3-c]pyrazole-5-carboxamide] was tested, and the IC50 [1] was 1500 nM and the IC50 [2] was 58 nM.

`Cc1nn(C2CCCCC2)c2sc(C(=O)Nc3ccc(N4CCN(C)CC4)cc3)cc12` [Example 106, 1-Cyclohexyl-3-methyl-N-[4-(4-methyl-1-piperazinyl)phenyl]-1H-thieno[2,3-c]pyrazole-5-carboxamide] showed an IC50 [1] of 1200 nM and an IC50 [2] of 9 nM.
